Measured values published in PubChem BioAssay (NCI).
“And” between values parts separate entries of the source, which are not always exact repeats. Identical values can stand only once.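 96-well plates; 48 h exposure; 5 concentrations. Endpoints by linear interpolation between flanking doses. Not reached: highest tested concentration assigned. GI50 = concentration required for 50% inhibition of growth. TGI denotes the concentration required for complete inhibition of growth.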

Experiments:
Assay in all cases: inhibition of tumour cell growth, NCI panel, 48 h
HL-60(TB) leukemia = system: HL-60(TB) leukemia
LOX IMVI melanoma = system: LOX IMVI melanoma
MDA-MB-435 = system: MDA-MB-435
SW-620 colon = system: SW-620 colon
MCF7 breast = system: MCF7 breast
UO-31 renal = system: UO-31 renal
NCI-H460 lung = system: NCI-H460 lung
SK-MEL-5 melanoma = system: SK-MEL-5 melanoma
M14 melanoma = system: M14 melanoma
EKVX NSCLC = system: EKVX NSCLC
OVCAR-5 ovarian = system: OVCAR-5 ovarian
SNB-75 CNS = system: SNB-75 CNS
SK-MEL-28 melanoma = system: SK-MEL-28 melanoma
786-0 renal = system: 786-0 renal
TK-10 renal = system: TK-10 renal
MDA-MB-231 breast = system: MDA-MB-231 breast
OVCAR-4 ovarian = system: OVCAR-4 ovarian
HS 578T breast = system: HS 578T breast
RXF 393 renal = system: RXF 393 renal
HCT-116 colon = system: HCT-116 colon
IGROV1 ovarian = system: IGROV1 ovarian
NCI-H522 lung = system: NCI-H522 lung
ACHN renal = system: ACHN renal
NCI-H23 lung = system: NCI-H23 lung
SF-295 CNS = system: SF-295 CNS
K-562 leukemia = system: K-562 leukemia
HCT-15 colon = system: HCT-15 colon
COLO 205 colon = system: COLO 205 colon
OVCAR-3 ovarian = system: OVCAR-3 ovarian
KM12 colon = system: KM12 colon
SF-268 CNS = system: SF-268 CNS
NCI/ADR-RES ovarian = system: NCI/ADR-RES ovarian
HOP-92 NSCLC = system: HOP-92 NSCLC
HT29 colon = system: HT29 colon
SK-MEL-2 melanoma = system: SK-MEL-2 melanoma
HCC-2998 colon = system: HCC-2998 colon
MALME-3M melanoma = system: MALME-3M melanoma
RPMI-8226 leukemia = system: RPMI-8226 leukemia
HOP-62 NSCLC = system: HOP-62 NSCLC
PC-3 prostate = system: PC-3 prostate
CAKI-1 renal = system: CAKI-1 renal
MDA-N = system: MDA-N
T-47D breast = system: T-47D breast
SN12C renal = system: SN12C renal
SF-539 CNS = system: SF-539 CNS
CCRF-CEM leukemia = system: CCRF-CEM leukemia
U251 CNS = system: U251 CNS
UACC-62 melanoma = system: UACC-62 melanoma
OVCAR-8 ovarian = system: OVCAR-8 ovarian
SNB-19 CNS = system: SNB-19 CNS
A549 NSCLC = system: A549 NSCLC
NCI-H226 lung = system: NCI-H226 lung
UACC-257 melanoma = system: UACC-257 melanoma
A498 renal = system: A498 renal
DU-145 prostate = system: DU-145 prostate
SK-OV-3 ovarian = system: SK-OV-3 ovarian

Compound: CCCCCCCCCC[C@H](O)[C@H]1CC[C@@H]([C@@H](O)CC[C@H](O)[C@@H]2CCC(CCCCCCC[C@@H](O)CC3=C[C@H](C)OC3=O)O2)O1 (some centres not stated)
- TGI (HL-60(TB) leukemia): 4.95 µM
- GI50 (LOX IMVI melanoma): 76.4 nM
- TGI (LOX IMVI melanoma): 2.18 µM and 10 µM
- GI50 (MDA-MB-435): 5.07 µM
- GI50 (SW-620 colon): 4.8 µM
- GI50 (MCF7 breast): 3000 nM
- TGI (MCF7 breast): 9.6 µM and 22.9 µM
- GI50 (UO-31 renal): 2590 nM
- TGI (UO-31 renal): 2.13 µM and 10.9 µM
- GI50 (NCI-H460 lung): 1150 nM
- TGI (NCI-H460 lung): 17.2 µM
- TGI (SK-MEL-5 melanoma): 3.48 µM and 3.24 µM
- GI50 (M14 melanoma): 2730 nM
- TGI (M14 melanoma): 2.93 µM and 9.75 µM
- GI50 (EKVX NSCLC): 5.17 µM
- TGI (EKVX NSCLC): 6.86 µM and 22.4 µM
- GI50 (OVCAR-5 ovarian): 12 µM
- TGI (OVCAR-5 ovarian): 28.4 µM
- GI50 (SNB-75 CNS): 9.29 µM
- TGI (SNB-75 CNS): 9.56 µM and 28.1 µM
- GI50 (SK-MEL-28 melanoma): 7.62 µM
- TGI (SK-MEL-28 melanoma): 5.44 µM and 39 µM
- GI50 (786-0 renal): 4.9 µM
- TGI (786-0 renal): 3.64 µM and 20.7 µM
- GI50 (TK-10 renal): 4.26 µM
- TGI (TK-10 renal): 20.9 µM
- TGI (MDA-MB-231 breast): 7.03 µM and 44.2 µM
- TGI (OVCAR-4 ovarian): 19.6 µM
- TGI (HS 578T breast): 4.86 µM
- TGI (RXF 393 renal): 19.8 µM
- GI50 (HCT-116 colon): 507 nM
- TGI (HCT-116 colon): 2.65 µM and 20.7 µM
- GI50 (IGROV1 ovarian): 5.17 µM
- TGI (IGROV1 ovarian): 4.99 µM and 21.1 µM
- TGI (NCI-H522 lung): 18 µM
- GI50 (ACHN renal): 2150 nM
- TGI (ACHN renal): 4.47 µM and 15.7 µM
- TGI (NCI-H23 lung): 3.68 µM and 19.2 µM
- GI50 (SF-295 CNS): 1220 nM
- TGI (SF-295 CNS): 15 µM
- TGI (K-562 leukemia): 19.2 µM
- GI50 (HCT-15 colon): 7.02 µM
- TGI (HCT-15 colon): 30.8 µM
- TGI (COLO 205 colon): 4.38 µM and 6 µM
- GI50 (OVCAR-3 ovarian): 3.29 µM
- TGI (OVCAR-3 ovarian): 2.75 µM and 14.2 µM
- GI50 (KM12 colon): 4.25 µM
- GI50 (SF-268 CNS): 8.17 µM
- GI50 (NCI/ADR-RES ovarian): 2630 nM
- TGI (NCI/ADR-RES ovarian): 4.08 µM and 19.6 µM
- GI50 (HOP-92 NSCLC): 1990 nM
- TGI (HOP-92 NSCLC): 4.34 µM and 16 µM
- TGI (HT29 colon): 3.5 µM
- GI50 (SK-MEL-2 melanoma): 8.82 µM
- TGI (SK-MEL-2 melanoma): 2.94 µM and 24.6 µM
- TGI (HCC-2998 colon): 19 µM
- TGI (MALME-3M melanoma): 12.3 µM
- TGI (RPMI-8226 leukemia): 4.03 µM
- GI50 (HOP-62 NSCLC): 4.55 µM
- TGI (HOP-62 NSCLC): 3.28 µM and 19.4 µM
- GI50 (PC-3 prostate): 4.66 µM
- TGI (PC-3 prostate): 3.44 µM and 17.2 µM
- GI50 (CAKI-1 renal): 5.26 µM
- TGI (CAKI-1 renal): 23.8 µM
- GI50 (MDA-N): 2100 nM
- TGI (MDA-N): 16 µM
- GI50 (T-47D breast): 1870 nM
- TGI (T-47D breast): 17.6 µM
- GI50 (SN12C renal): 8.18 µM
- TGI (SN12C renal): 8.23 µM and 30.6 µM
- GI50 (SF-539 CNS): 4.33 µM
- TGI (SF-539 CNS): 3.86 µM and 25.8 µM
- GI50 (CCRF-CEM leukemia): 2080 nM
- TGI (CCRF-CEM leukemia): 12.3 µM
- GI50 (U251 CNS): 8.25 µM
- TGI (UACC-62 melanoma): 3.13 µM
- GI50 (OVCAR-8 ovarian): 4.09 µM
- TGI (SNB-19 CNS): 4.71 µM and 19.6 µM
- GI50 (A549 NSCLC): 2890 nM
- TGI (A549 NSCLC): 18.5 µM
- GI50 (NCI-H226 lung): 8.54 µM
- TGI (NCI-H226 lung): 6.43 µM and 36 µM
- GI50 (UACC-257 melanoma): 921 nM
- TGI (UACC-257 melanoma): 4.47 µM and 13.8 µM

Compound: Cn1cnc(C(=N)[Se])c1N
- TGI (A498 renal): > 28.6 µM
- TGI (LOX IMVI melanoma): > 100 µM
- TGI (MDA-MB-435): > 100 µM
- TGI (SW-620 colon): > 100 µM
- TGI (MCF7 breast): > 29.3 µM
- TGI (NCI-H460 lung): 1.55 µM
- TGI (DU-145 prostate): > 100 µM
- TGI (SK-MEL-5 melanoma): > 100 µM
- TGI (M14 melanoma): > 100 µM
- TGI (SK-OV-3 ovarian): 2300 nM
- TGI (OVCAR-5 ovarian): > 100 µM
- TGI (SNB-75 CNS): 4.38 µM
- TGI (SK-MEL-28 melanoma): > 100 µM
- TGI (TK-10 renal): > 24.8 µM
- TGI (HS 578T breast): > 26.4 µM
- TGI (HCT-116 colon): > 100 µM
- TGI (NCI-H23 lung): > 27.1 µM
- TGI (HCT-15 colon): > 100 µM
- TGI (KM12 colon): > 28.8 µM
- TGI (SF-268 CNS): 4.94 µM
- TGI (NCI/ADR-RES ovarian): 3.15 µM
- TGI (HOP-92 NSCLC): > 100 µM
- TGI (HT29 colon): > 100 µM
- TGI (HCC-2998 colon): > 100 µM
- TGI (MALME-3M melanoma): 8.89 µM
- TGI (RPMI-8226 leukemia): 6.95 µM
- TGI (HOP-62 NSCLC): > 23.4 µM
- TGI (PC-3 prostate): 14.9 µM
- TGI (CAKI-1 renal): 60.9 µM
- TGI (MDA-N): > 100 µM
- TGI (T-47D breast): > 100 µM
- TGI (SF-539 CNS): 4.18 µM
- TGI (CCRF-CEM leukemia): 6.26 µM
- TGI (OVCAR-8 ovarian): 3.31 µM
- TGI (SNB-19 CNS): > 28 µM
- TGI (A549 NSCLC): > 100 µM
- TGI (NCI-H226 lung): 12.5 µM
- TGI (UACC-257 melanoma): > 100 µM
